Where two headings read alike, the source gives them in different places.
How the values were obtained:
Settings in all cases: Klebsiella pneumoniae
[1] = tested on: K. pneumoniae NVT1001 strains with carbapenemase plasmids; experiment: Etest MIC of β-lactams, OmpK35/36 loss, ΔramR and/or carbapenemase (Table 9); assay type: cell-based, Klebsiella pneumoniae
Outline: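 Etest MICs, with values between standard dilutions rounded up to the next two-fold step, were measured in K. pneumoniae NVT1001 carrying PCR-cloned resistance genes on pACYC177 or pACYC184 plasmids. Interpretation used CLSI 2017 breakpoints, CLSI 2015 for cephalothin and EUCAST 2017 for moxifloxacin. For the blaOXA-48 strain, ceftazidime and cefotaxime were additionally tested by CLSI broth microdilution.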

[2] = tested on: K. pneumoniae NVT1001 ΔramRΔompK35/36 mutant and its revertants; experiment: Etest MIC, ΔramRΔompK35/36 mutant and its revertants (Table 7); assay type: cell-based
[3] = tested on: K. pneumoniae NVT1001 and its ΔompK35/36 and/or ΔramR mutants; experiment: Etest MIC, OmpK35/36 loss and AcrAB-TolC overexpression (ΔramR) strains (Table 6); assay type: cell-based, Klebsiella pneumoniae
Outline: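 Ceftazidime and cefotaxime were tested by CLSI broth microdilution on the blaOXA-48 pACYC177 transformant of NVT1001, using CLSI 2017 breakpoints. Parent, porin-deleted (ΔompK35/36) and ΔramR strains were tested by Etest, with values between two-fold dilutions rounded up.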

Measured: MIC

C[C@@H](O)[C@H]1C(=O)N2C(C(=O)O)=C(S[C@@H]3CN[C@H](C(=O)Nc4cccc(C(=O)O)c4)C3)[C@H](C)[C@H]12 [Ertapenem]
> 32 µg/mL: [1]; IMP-8 on pACYC177, Δ35/36 (ΔompK35/36 mutant) | [1]; IMP-8 on pACYC177, ΔramRΔ35/36 (ΔramRΔompK35/36 mutant) | [1]; IMP-8 on pACYC177, ΔramRΔ36 (ΔramRΔompK36 mutant) | [1]; KPC-2 on pACYC177, Δ35/36 (ΔompK35/36 mutant) | [1]; KPC-2 on pACYC177, ΔramR mutant | [1]; KPC-2 on pACYC177, ΔramRΔ35 (ΔramRΔompK35 mutant) | [1]; KPC-2 on pACYC177, ΔramRΔ35/36 (ΔramRΔompK35/36 mutant) | [1]; KPC-2 on pACYC177, ΔramRΔ36 (ΔramRΔompK36 mutant) | [1]; KPC-3 on pACYC177, Δ35/36 (ΔompK35/36 mutant) | [1]; KPC-3 on pACYC177, ΔramRΔ35/36 (ΔramRΔompK35/36 mutant) | [1]; KPC-3 on pACYC177, ΔramRΔ36 (ΔramRΔompK36 mutant) | [1]; NDM-1 on pACYC177, Δ35 (ΔompK35 mutant) | [1]; NDM-1 on pACYC177, Δ35/36 (ΔompK35/36 mutant) | [1]; NDM-1 on pACYC177, Δ36 (ΔompK36 mutant) | [1]; NDM-1 on pACYC177, ΔramR mutant | [1]; NDM-1 on pACYC177, ΔramRΔ35 (ΔramRΔompK35 mutant) | [1]; NDM-1 on pACYC177, ΔramRΔ35/36 (ΔramRΔompK35/36 mutant) | [1]; NDM-1 on pACYC177, ΔramRΔ36 (ΔramRΔompK36 mutant) | [1]; OXA-48 on pACYC177, Δ35/36 (ΔompK35/36 mutant) | [1]; OXA-48 on pACYC177, ΔramRΔ35/36 (ΔramRΔompK35/36 mutant) | [1]; OXA-48 on pACYC177, ΔramRΔ36 (ΔramRΔompK36 mutant) | [1]; VIM-1 on pACYC177, Δ35/36 (ΔompK35/36 mutant) | [1]; VIM-1 on pACYC177, ΔramRΔ35/36 (ΔramRΔompK35/36 mutant) | [1]; VIM-1 on pACYC177, ΔramRΔ36 (ΔramRΔompK36 mutant)
32 µg/mL: [1]; KPC-2 on pACYC177, WT (NVT1001), read-out: MIC | [1]; KPC-2 on pACYC177, Δ35 (ΔompK35 mutant) | [1]; KPC-2 on pACYC177, Δ36 (ΔompK36 mutant) | [1]; KPC-3 on pACYC177, WT (NVT1001), read-out: MIC | [1]; KPC-3 on pACYC177, Δ35 (ΔompK35 mutant) | [1]; KPC-3 on pACYC177, Δ36 (ΔompK36 mutant) | [1]; KPC-3 on pACYC177, ΔramR mutant | [1]; KPC-3 on pACYC177, ΔramRΔ35 (ΔramRΔompK35 mutant) | [1]; NDM-1 on pACYC177, WT (NVT1001), read-out: MIC
1 µg/mL: [2]; ΔramRΔompK35/36::ramR revertant
0.015 µg/mL: [1]; no supplemental plasmid, WT (NVT1001), read-out: MIC | [2]; ΔramRΔompK35/36::ramR::ompK35/36 revertant | [3]; WT, NVT1001, read-out: MIC
8 µg/mL: [1]; OXA-48 on pACYC177, Δ35 (ΔompK35 mutant) | [1]; OXA-48 on pACYC177, Δ36 (ΔompK36 mutant) | [1]; OXA-48 on pACYC177, ΔramR mutant | [1]; OXA-48 on pACYC177, ΔramRΔ35 (ΔramRΔompK35 mutant)
4 µg/mL: [1]; IMP-8 on pACYC177, Δ35 (ΔompK35 mutant) | [1]; IMP-8 on pACYC177, ΔramR mutant | [1]; IMP-8 on pACYC177, ΔramRΔ35 (ΔramRΔompK35 mutant) | [1]; OXA-48 on pACYC177, WT (NVT1001), read-out: MIC | [1]; VIM-1 on pACYC177, Δ35 (ΔompK35 mutant) | [1]; VIM-1 on pACYC177, ΔramR mutant | [1]; VIM-1 on pACYC177, ΔramRΔ35 (ΔramRΔompK35 mutant) | [1]; no supplemental plasmid, ΔramRΔ35/36 (ΔramRΔompK35/36 mutant) | [1]; no supplemental plasmid, ΔramRΔ36 (ΔramRΔompK36 mutant) | [2]; ΔramRΔompK35/36::ompK35 revertant | [2]; ΔramRΔompK35/36 mutant | [3]; ΔramRΔ35/36, ΔramRΔompK35/36 mutant | [3]; ΔramRΔ36, ΔramRΔompK36 mutant
0.03 µg/mL: [1]; no supplemental plasmid, Δ35 (ΔompK35 mutant) | [1]; no supplemental plasmid, Δ36 (ΔompK36 mutant) | [2]; ΔramRΔompK35/36::ramR::ompK35 revertant | [2]; ΔramRΔompK35/36::ramR::ompK36 revertant | [3]; Δ35, ΔompK35 mutant | [3]; Δ36, ΔompK36 mutant
2 µg/mL: [1]; IMP-8 on pACYC177, WT (NVT1001), read-out: MIC | [1]; IMP-8 on pACYC177, Δ36 (ΔompK36 mutant) | [1]; VIM-1 on pACYC177, WT (NVT1001), read-out: MIC | [1]; VIM-1 on pACYC177, Δ36 (ΔompK36 mutant) | [1]; no supplemental plasmid, Δ35/36 (ΔompK35/36 mutant) | [3]; Δ35/36, ΔompK35/36 mutant
0.125 µg/mL: [1]; no supplemental plasmid, ΔramR mutant | [1]; no supplemental plasmid, ΔramRΔ35 (ΔramRΔompK35 mutant) | [2]; ΔramRΔompK35/36::ompK35/36 revertant | [2]; ΔramRΔompK35/36::ompK36 revertant | [3]; ΔramR mutant | [3]; ΔramRΔ35, ΔramRΔompK35 mutant

— patent US10760110B2, “Antibiotic testing and screening system” (priority 2017, dated 2020)
